# Reference: patent US12077503B2, “Substituted cyclic amides and their use as herbicides” (FMC CORPORATION, priority 2015, dated 2024)
# Like-named read-outs stand apart in the source and are kept apart here.
# Legend:
# Assay in all cases: Test A postemergence
# Assay type in all cases: in vivo
# [1] = test system: wheat (Triticum aestivum); settings: Triticum aestivum, post-emergence, 240 h, postemergence; for plant injury at 125 g/ha: 125 g ai/ha; for plant injury at 500 g/ha: 500 g ai/ha, 0 to 100 scale, 0 is no effect, 100 is complete control
# Summary of the method: (§1)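 Seeds sprayed preemergence with a directed soil spray, or plants at 2 to 10 cm height and one- to two-leaf stage sprayed postemergence, with test chemicals in a non-phytotoxic solvent mixture containing surfactant, in loam soil–sand blend. Injury rated visually against untreated controls after about 10 d in greenhouse, 0 (no effect) to 100 (complete control).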
# [2] = test system: blackgrass (Alopecurus myosuroides); settings: Alopecurus myosuroides, post-emergence, 240 h, postemergence; for pest or weed control at 125 g/ha: 125 g ai/ha; for pest or weed control at 500 g/ha: 500 g ai/ha, 0 to 100 scale, 0 is no effect, 100 is complete control
# Summary of the method: as §1
# [3] = test system: ryegrass, Italian (Italian ryegrass, Lolium multiflorum); settings: Lolium multiflorum, post-emergence, 240 h, postemergence; for pest or weed control at 125 g/ha: 125 g ai/ha; for pest or weed control at 500 g/ha: 500 g ai/ha, 0 to 100 scale, 0 is no effect, 100 is complete control
# Summary of the method: as §1
# [4] = test system: ragweed (common ragweed, Ambrosia elatior); settings: Ambrosia artemisiifolia, post-emergence, 240 h, postemergence; for pest or weed control at 125 g/ha: 125 g ai/ha; for pest or weed control at 500 g/ha: 500 g ai/ha, 0 to 100 scale, 0 is no effect, 100 is complete control
# Summary of the method: as §1
# [5] = test system: giant foxtail (Setaria faberii); settings: Setaria faberi, post-emergence, 240 h, postemergence; for pest or weed control at 125 g/ha: 125 g ai/ha; for pest or weed control at 500 g/ha: 500 g ai/ha, 0 to 100 scale, 0 is no effect, 100 is complete control
# Summary of the method: as §1
# [6] = visual injury on 0 to 100 scale (0 no effect, 100 complete control), approx. 10 d, read-out: Wheat plant response rating
# [7] = read-out: Wheat plant response rating
# [8] = visual injury on 0 to 100 scale (0 no effect, 100 complete control), approx. 10 d, read-out: Blackgrass plant response rating
# [9] = read-out: Blackgrass plant response rating
# [10] = visual injury on 0 to 100 scale (0 no effect, 100 complete control), approx. 10 d, read-out: Ryegrass, Italian plant response rating
# [11] = read-out: Ryegrass, Italian plant response rating
# [12] = visual injury on 0 to 100 scale (0 no effect, 100 complete control), approx. 10 d, read-out: Ragweed plant response rating
# [13] = read-out: Ragweed plant response rating
# [14] = visual injury on 0 to 100 scale (0 no effect, 100 complete control), approx. 10 d, read-out: Foxtail, Giant plant response rating
# [15] = read-out: Foxtail, Giant plant response rating
SMILES,"plant injury at 125 g/ha [1, 6] [%]","plant injury at 500 g/ha [1, 7] [%]","pest or weed control at 125 g/ha [2, 8] [%]","pest or weed control at 500 g/ha [2, 9] [%]","pest or weed control at 125 g/ha [3, 10] [%]","pest or weed control at 500 g/ha [3, 11] [%]","pest or weed control at 125 g/ha [4, 12] [%]","pest or weed control at 500 g/ha [4, 13] [%]","pest or weed control at 125 g/ha [5, 14] [%]","pest or weed control at 500 g/ha [5, 15] [%]","plant injury at 125 g/ha ([1]; visual injury vs untreated controls after approx. 10 d, 0 = no effect, 100 = complete control, read-out: Wheat plant response rating (0 to 100 scale)) [%]","pest or weed control at 125 g/ha ([2]; visual injury vs untreated controls after approx. 10 d, 0 = no effect, 100 = complete control, read-out: Blackgrass plant response rating (0 to 100 scale)) [%]","pest or weed control at 125 g/ha ([3]; visual injury vs untreated controls after approx. 10 d, 0 = no effect, 100 = complete control, read-out: Ryegrass, Italian plant response rating (0 to 100 scale)) [%]","pest or weed control at 125 g/ha ([4]; visual injury vs untreated controls after approx. 10 d, 0 = no effect, 100 = complete control, read-out: Ragweed plant response rating (0 to 100 scale)) [%]","pest or weed control at 125 g/ha ([5]; visual injury vs untreated controls after approx. 10 d, 0 = no effect, 100 = complete control, read-out: Foxtail, Giant plant response rating (0 to 100 scale)) [%]"
O=C1NC[C@H](c2cc(C(F)F)cs2)[C@H]1C(=O)Nc1cccc(F)c1F [Compound 1117],0,70,0,40,0,40,0,30,20,70,,,,,
CN1C[C@H](c2csc(C(F)F)c2)[C@@H](C(=O)Nc2cccc(F)c2F)C1=O [Compound 1122],50,70,40,60,30,60,50,50,80,90,,,,,
CN1C[C@H](c2csc(C(F)F)c2)[C@@H](C(=O)Nc2ccccc2F)C1=O [Compound 1123],0,60,30,80,30,50,30,50,90,90,,,,,
CC(C)Oc1ccc([C@H]2CNC(=O)[C@@H]2C(=O)Nc2ccccc2F)cc1 [Compound 1135],0,0,0,0,0,0,0,0,0,0,,,,,
CC(C)Oc1ccc([C@H]2CNC(=O)[C@@H]2C(=O)Nc2cccc(F)c2F)cc1 [Compound 1136],0,0,0,30,0,0,0,0,20,90,,,,,
CC(C)Oc1ccc([C@H]2CNC(=O)[C@@H]2C(=O)Nc2ccc(F)cc2F)cc1 [Compound 1137],0,0,0,0,0,0,0,0,0,0,,,,,
CCc1cc(CC)cc([C@H]2CNC(=O)[C@@H]2C(=O)Nc2ccccc2F)c1 [Compound 1138],30,70,30,60,0,50,0,0,50,90,,,,,
CCc1ccc([C@H]2CNC(=O)[C@@H]2C(=O)Nc2cccc(F)c2C)cc1 [Compound 1177],,30,,70,,40,,0,,70,20,60,40,0,50
